Results as given in paper PMC7917639, “Nopol-Based Quinoline Derivatives as Antiplasmodial Agents” (Molecules, 2021).
Where “and” joins values, the source holds several entries; their conditions need not be identical. Equal entries are not always repeated. Where two headings read alike, the source gives them in different places. Values belong to the compound of their own block, whether it stands above or below them.

Legend:
[1] = tested on: P. falciparum 3D7 (Pf3D7, chloroquine-sensitive strain); experiment: Pf3D7 asexual blood-stage growth inhibition, SYBR Green fluorescence assay; format: cell-based, Plasmodium falciparum; conditions: for Pf3D7 selectivity index (SI, CC50/EC50): Hep G2 CC50 / Pf3D7 EC50; for EC50: read-out: Pf3D7 EC50; for Antiplasmodial activity against Pf3D7 (in words): chloroquine-sensitive strain
Protocol: a. Pf3D7: 100 μL of complete media (Sigma-Aldrich’s RPMI 1640, 25 mM HEPES, 10 μg/mL gentamicin, 0.5 mM hypoxanthine supplemented with NaHCO3 and 0.5% Albumax II, 37 °C) containing compounds (50–0.3 µM) or 100 µM chloroquine were added to 96 well plates in triplicates. This was followed by the addition of 100 µL erythrocytic asexual culture of Pf3D7 (10% hematocrit and 0.25% ring stage parasitemia), maintained at atmospheric conditions of 1% oxygen, 5% carbon dioxide, and 94% nitrogen, and allowed to grow for 96 h at 37 °C. The cultures were then frozen at −80 °C overnight and thawed at 37 °C for 4 h. Aliquots (100 µL) from each well were transferred to black 96-well plates, 100 μL of 2× SYBR Green (Molecular Probes) in lysis buffer (20 mM Tris at pH 7.5, 5 mM EDTA, 0.008% saponin, 0.08% Triton X-100) was added to each well and mixed thoroughly with a pipette. The plates were incubated in the dark at room temperature for 1 h and read at λex 485 nm and λem 530 nm. Infected and untreated red blood cells (iRBC) cultures served as negative control. Percent inhibitory activities were calculated using (=100 − 100*((Sample − 100 µM CQ)/(iRBC − 100 µM CQ)) and used to plot sigmoidal inhibition curves to obtain the EC50 values.

[2] = tested on: Human hepatocarcinoma cell line (Hep G2); experiment: Cytotoxicity assay (MTT); format: cell-based; conditions: 72 h
Protocol: (§1) Human hepatocarcinoma cell line (Hep G2, ATCC CRL-11997TM) was used for cytotoxicity studies as previously described. The cells were grown in complete medium (DMEM:F12 containing L-glutamine and sodium bicarbonate, 10% FBS, 1% penicillin/streptomycin, Thermo Fisher Scientific) at 37 °C in 5% CO2 environment. Cells (198 µL, 5 × 10^5/mL) were seeded into 96-well plates and incubated overnight. The cells were treated with the compounds (160–1.25 µM, in triplicates) or DMSO (1%) for 72 h. The cell medium was removed and replaced with DMEM:F12 medium containing MTT (0.5 mg/mL) was added to the cells and incubated for 1.5 h. The MTT-containing medium was gently removed and replaced with DMSO (200 µL/well). The contents of each well were then repeatedly mixed with a multichannel pipette and incubated for 10 min. The plates were read at 570 nm. DMSO-treated (1%) cells were used as negative assay control and SDS (10%) was used as assay positive control. Percent cell viabilities were expressed as a percentage of the mean viability of DMSO-treated (1%) cells.

PfNF54 = PfNF54 erythrocytic stage growth inhibition, [3H]-hypoxanthine incorporation assay; format: cell-based, Plasmodium falciparum; conditions: for EC50: erythrocytic stages, 48 h + 24 h with 3H-hypoxanthine; for PfNF54 selectivity index (SI, CC50/EC50): Hep G2 CC50 / PfNF54 EC50
Protocol: b. PfNH54 and PfK1: The growth inhibitory activities of the compounds against erythrocytic stages of PfNH54 and PfK1 were determined using the [^3H]-hypoxanthine incorporation assay as previously reported. […] The CPMs were expressed as a percentage of the CPMs from the untreated controls and used to estimate the EC50 from sigmoidal inhibition curves. Artemisinin and CQ were used as positive controls.

PfK1 = PfK1 erythrocytic stage growth inhibition, [3H]-hypoxanthine incorporation assay; format: cell-based, Plasmodium falciparum; conditions: for EC50: erythrocytic stages, 48 h + 24 h with 3H-hypoxanthine; for Antiplasmodial activity against K1 strain (in words): multidrug-resistant strain; for PfK1 selectivity index (SI, CC50/EC50): Hep G2 CC50 / PfK1 EC50
Protocol: b. PfNH54 and PfK1: The growth inhibitory activities of the compounds against erythrocytic stages of PfNH54 and PfK1 were determined using the [^3H]-hypoxanthine incorporation assay as previously reported. Parasites in RPMI 1640 medium containing […] (without hypoxanthine) were treated with compounds (50–0.3 µM) in 96 well plates for 48 h at 37 °C in 92% N2, 5% CO2, and 3% O2. ^3H-hypoxanthine (0.5 μCi) was added to each well, incubated for an additional 24 h, harvested onto glass-fiber filters, and washed with distilled water. Radioactivity at each compound concentration was counted using a Betaplate™ liquid scintillation counter (Wallac, Zurich), and the results were recorded as counts per minute (CPM) per well. The CPMs were expressed as a percentage of the CPMs from the untreated controls and used to estimate the EC50 from sigmoidal inhibition curves. Artemisinin and CQ were used as positive controls.

Cytotoxicity assay (MTT) = format: cell-based, Human; conditions: human
Protocol: as §1

[3] = erythrocytic asexual culture, 96 h, SYBR Green
[4] = Plasmodium falciparum, 3D7, erythrocytic asexual culture, 96 h, SYBR Green
[5] = Plasmodium falciparum, 3D7, 96 h

SMILES: CC1(C)C2CC=C(CC(=O)Nc3cccc4cccnc34)C1C2 (single isomer, unassigned) [Compound 3, 2-(6,6-dimethylbicyclo[3.1.1]hept-2-en-2-yl)-N-(quinolin-8-yl) Acetamide]
Pf3D7 selectivity index (SI, CC50/EC50) [1]: > 73.1
EC50 [1, 3]: 2.19 ± 0.15 µM
Antiplasmodial activity against NF54 strain (in words) (PfNF54): inactive
EC50 (PfNF54): > 50 µM
EC50 (PfK1): > 50 µM
Antiplasmodial activity against K1 strain (in words) (PfK1): inactive
CC50 [2]: > 160 µM

SMILES: CC1(C)C2CC=C(CC(=O)Nc3cccc4cccnc34)C1C2 (single isomer, unassigned) [Compound 4, 2-(6,6-dimethylbicyclo[3.1.1]hept-2-en-2-yl)-N-(quinolin-8-yl) Acetamide]
Pf3D7 selectivity index (SI, CC50/EC50) [1]: > 62.3
EC50 [1, 3]: 2.57 ± 0.02 µM
Antiplasmodial activity against NF54 strain (in words) (PfNF54): inactive
EC50 (PfNF54): > 50 µM
EC50 (PfK1): > 50 µM
Antiplasmodial activity against K1 strain (in words) (PfK1): inactive
CC50 [2]: > 160 µM

SMILES: Cc1cc(C(=O)OCCC2=CC[C@@H]3C[C@H]2C3(C)C)c2ccc(Cl)cc2n1 (stereo in doubt) [Compound 13, 2-((1S,5R)-6,6-dimethylbicyclo[3.1.1]hept-2-en-2-yl)ethyl-7-chloro-2-methylquinoline-4-carboxylate]
Pf3D7 selectivity index (SI, CC50/EC50) [1]: > 6.9
EC50 [1, 4]: 23 ± 2 µM
Antiplasmodial activity against Pf3D7 (in words) [1]: very weak antiplasmodial activity
CC50 at 72 h (Cytotoxicity assay (MTT); read-out: Hep G2 CC50): > 160 µM

SMILES: CC1(C)[C@@H]2CC=C(CCOC(=O)c3cc4ccccc4nc3Cl)[C@H]1C2 (stereo in doubt) [Compound 14, 2-((1S,5R)-6,6-dimethylbicyclo[3.1.1]hept-2-en-2-yl)ethyl-2-chloroquinoline-3-carboxylate]
Pf3D7 selectivity index (SI, CC50/EC50) [1]: 13.6
EC50 [1, 4]: 4.04 ± 0.03 µM
Antiplasmodial activity against Pf3D7 (in words) [1]: moderately active
Antiplasmodial activity against NF54 strain (in words) (PfNF54): inactive
Antiplasmodial activity against K1 strain (in words) (PfK1): inactive
CC50 at 72 h (Cytotoxicity assay (MTT); read-out: Hep G2 CC50): 55.2 ± 1.2 µM

SMILES: Cc1cc(C(=O)OCC[C@@]23O[C@@H]2C[C@@H]2C[C@H]3C2(C)C)c2ccc(Cl)cc2n1 (stereo in doubt) [Compound 16, 2-((1S,2S,4R,6S)-7,7-dimethyl-3-oxatricyclo[4.1.1.0 2,4]octan-2-yl)ethyl-7-chloro-2-methylquinoline-4-carboxylate]
Pf3D7 selectivity index (SI, CC50/EC50) [1]: 1.9
EC50 [1, 4]: 40.4 ± 1.58 µM
Antiplasmodial activity against Pf3D7 (in words) [1]: weakly active but nonselective
CC50 at 72 h (Cytotoxicity assay (MTT); read-out: Hep G2 CC50): 76.8 ± 6.5 µM

SMILES: C[C@@H]1CC[C@H]2[C@@H](C)C(=O)O[C@@H]3O[C@@]4(C)CC[C@@H]1[C@]32OO4 [Artemisinin, reference compound]
EC50 (PfNF54; Plasmodium falciparum, 72 h): 0.017 ± 0.005 µM
EC50 (PfK1; Plasmodium falciparum, 72 h): 0.011 ± 0.005 µM

SMILES: CCN(CC)CCCC(C)Nc1ccnc2cc(Cl)ccc12 (stereo not shown) [Chloroquine, reference compound]
EC50 [1, 5]: 0.004 ± 0.001 µM

SMILES: Cc1cc(OC(=O)CC2=CC[C@@H]3C[C@H]2C3(C)C)c2ccc(Cl)c(C)c2n1 [Compound 9, 7-chloro-2,8-dimethylquinolin-4-yl-2-((1S,5R)-6,6-dimethylbicyclo[3.1.1]hept-2-en-2-yl) Acetate]
Pf3D7 selectivity index (SI, CC50/EC50) [1]: > 26
EC50 [1, 3]: 6.2 µM and 6.15 µM
CC50 [2]: > 160 µM

SMILES: CC1(C)[C@@H]2CC=C(CC(=O)Oc3cc(C(F)(F)F)nc4ccc(F)cc34)[C@H]1C2 [Compound 10, 6-fluoro-2-(trifluoromethyl)quinolin-4-yl-2-((1S,5R)-6,6-dimethylbicyclo[3.1.1]hept-2-en-2yl) Acetate]
Pf3D7 selectivity index (SI, CC50/EC50) [1]: 2.3
EC50 [1, 3]: 21.4 ± 5.06 µM
CC50 [2]: 48.5 ± 1.12 µM

SMILES: CC1(C)[C@@H]2CC=C(CC(=O)Oc3cc(C(F)(F)F)nc4c(C(F)(F)F)cccc34)[C@H]1C2 [Compound 12, 2,8-bis(trifluoromethyl)quinolin-4-yl-2-((1S,5R)-6,6-dimethylbicyclo[3.1.1]hept-2-en-2-yl) Acetate]
Pf3D7 selectivity index (SI, CC50/EC50) [1]: 0.7
EC50 [1, 3]: 29.6 ± 0.93 µM
CC50 [2]: 21.8 ± 1.1 µM

SMILES: CC1(C)[C@H]2CC=C(CCOC(=O)c3cc4ccccc4[nH]3)[C@@H]1C2 [Compound 15, 2-((1R,5S)-6,6-dimethylbicyclo[3.1.1]hept-2-en-2-yl)ethyl-1H-indole-2-carboxylate]
Pf3D7 selectivity index (SI, CC50/EC50) [1]: > 8.5
EC50 [1, 5]: 4.71 ± 0.07 µM
Antiplasmodial activity against Pf3D7 (in words) [1]: moderately active
CC50 at 72 h (Cytotoxicity assay (MTT); Hep G2 cells (human hepatocarcinoma cell line)): > 40 µM

SMILES: OC(c1cc(C(F)(F)F)nc2c(C(F)(F)F)cccc12)C1CCCCN1 (stereo not shown) [Mefloquine, reference compound]
EC50 [1, 4]: 2.33 ± 2.29 µM
EC50 (PfNF54; Plasmodium falciparum, 72 h): 0.003 ± 0.002 µM
EC50 (PfK1; Plasmodium falciparum, 72 h): 0.117 ± 0.015 µM

The next lines start with results.

EC50 [1, 3]: 5.25 ± 0.7 µM
SMILES: COc1ccc(NC(=O)CC2=CCC3CC2C3(C)C)c2ncccc12 (single isomer, unassigned) [Compound 1]
Pf3D7 selectivity index (SI, CC50/EC50) [1]: 13.4
CC50 [2]: 70.8 ± 1.26 µM

EC50 [1, 3]: 2.72 ± 0.28 µM
SMILES: COc1ccc(NC(=O)CC2=CCC3CC2C3(C)C)c2ncccc12 (single isomer, unassigned) [Compound 2]
Pf3D7 selectivity index (SI, CC50/EC50) [1]: > 58.8
CC50 [2]: > 160 µM

EC50 [1, 3]: 26.4 ± 1.7 µM
SMILES: CC1(C)[C@@H]2CC=C(CC(=O)Nc3ccnc4ccccc34)[C@H]1C2 [Compound 5, 2-((1S,5R)-6,6-dimethylbicyclo[3.1.1]hept-2-en-2-yl)-N-(quinolin-4-yl) Acetamide]
Pf3D7 selectivity index (SI, CC50/EC50) [1]: 0.2
Antiplasmodial activity against NF54 strain (in words) (PfNF54): weakly active
PfNF54 selectivity index (SI, CC50/EC50) (PfNF54): 0.2
EC50 (PfNF54): 23.4 ± 0.14 µM
PfK1 selectivity index (SI, CC50/EC50) (PfK1): 0.3
EC50 (PfK1): 13.9 ± 2.1 µM
Antiplasmodial activity against K1 strain (in words) (PfK1): weakly active
CC50 [2]: 3.98 ± 0.7 µM

EC50 [1, 3]: 17.1 ± 1.8 µM
SMILES: CC1(C)[C@@H]2CC=C(CC(=O)Nc3ccnc4cc(Cl)ccc34)[C@H]1C2 [Compound 6, N-(7-chloroquinolin-4-yl)-2-((1S,5R)-6,6-dimethylbicyclo[3.1.1]hept-2-en-2-yl) Acetamide]
Pf3D7 selectivity index (SI, CC50/EC50) [1]: 0.8
Antiplasmodial activity against NF54 strain (in words) (PfNF54): weakly active
PfNF54 selectivity index (SI, CC50/EC50) (PfNF54): 0.7
EC50 (PfNF54): 21.4 ± 1.7 µM
PfK1 selectivity index (SI, CC50/EC50) (PfK1): 1.8
EC50 (PfK1): 7.84 ± 0.57 µM
Antiplasmodial activity against K1 strain (in words) (PfK1): weakly active
CC50 [2]: 14.3 ± 1.2 µM

EC50 [1, 3]: > 50 µM
SMILES: CC1(C)[C@@H]2CC=C(CC(=O)Oc3ccnc4ccccc34)[C@H]1C2 [Compound 7, quinolin-4-yl-2-((1S,5R)-6,6-dimethylbicyclo[3.1.1]hept-2-en-2-yl) Acetate]
EC50 (PfNF54): > 50 µM
EC50 (PfK1): > 28 µM
CC50 [2]: > 160 µM

EC50 [1, 3]: > 50 µM
SMILES: CC1(C)[C@@H]2CC=C(CC(=O)Oc3ccnc4cc(Cl)ccc34)[C@H]1C2 [Compound 8, 7-chloroquinolin-4-yl-2-((1S,5R)-6,6-dimethylbicyclo[3.1.1]hept-2-en-2-yl) Acetate]
PfNF54 selectivity index (SI, CC50/EC50) (PfNF54): > 6.8
EC50 (PfNF54): 23.3 µM
PfK1 selectivity index (SI, CC50/EC50) (PfK1): > 976
EC50 (PfK1): 0.16 µM and 0.164 µM
Antiplasmodial activity against K1 strain (in words) (PfK1): sub-micromolar EC50
CC50 [2]: > 160 µM

EC50 [1, 3]: 17.6 ± 5.27 µM
SMILES: Cc1c(Cl)ccc2c(OC(=O)CC3=CC[C@@H]4C[C@H]3C4(C)C)ccnc12 [Compound 11, 7-chloro-8-methylquinolin-4-yl-2-((1S,5R)-6,6-dimethylbicyclo[3.1.1]hept-2-en-2-yl) Acetate]
Pf3D7 selectivity index (SI, CC50/EC50) [1]: >9.1
CC50 [2]: > 160 µM
